Calls of active or inactive are those of the source. The calls are words filed in the database; no cut-off is given here.
How the values were obtained:
[1] = biological target: Mitogen-activated protein kinase 11 (Homo sapiens, UniProt Q15759); assay: NanoBRET (MAPK11)
[2] = biological target: Mitogen-activated protein kinase kinase kinase 8 (Homo sapiens) (UniProt P41279); assay: COT ProQinase selectivity panel; settings: Compound concentration 1.0 uM
[3] = biological target: Lymphokine-activated killer T-cell-originated protein kinase (Homo sapiens) (UniProt Q96KB5); assay: PBK ProQinase selectivity panel; settings: Compound concentration 1.0 uM
[4] = biological target: Fibroblast growth factor receptor 2 (Homo sapiens) (UniProt P21802); assay: FGF-R2 ProQinase selectivity panel; settings: Compound concentration 1.0 uM
[5] = biological target: GABA-A receptor; anion channel (Rattus norvegicus) (UniProt O09028+P15431+P18506+P18508+P19969+P20236+P23574+P23576+P28471+P28473+P30191+P62813+P63079+P63138+Q91ZM7+Q9ES14); settings: Compound concentration 10.0 uM
[6] = biological target: NT-3 growth factor receptor (Homo sapiens) (UniProt Q16288); assay: TRK-C ProQinase selectivity panel; settings: Compound concentration 1.0 uM
[7] = biological target: Receptor-interacting serine/threonine-protein kinase 2 (Homo sapiens) (UniProt O43353); assay: RIPK2 ProQinase selectivity panel; settings: Compound concentration 1.0 uM
[8] = biological target: G protein-coupled receptor kinase 6 (Homo sapiens) (UniProt P43250); assay: GRK6 ProQinase selectivity panel; settings: Compound concentration 1.0 uM
[9] = biological target: Casein kinase I isoform alpha (Homo sapiens) (UniProt P48729); assay: CK1-alpha1 ProQinase selectivity panel; settings: Compound concentration 1.0 uM
[10] = biological target: Serine/threonine-protein kinase MARK1 (Homo sapiens) (UniProt Q9P0L2); assay: MARK1 ProQinase selectivity panel; settings: Compound concentration 1.0 uM
[11] = biological target: Protein kinase C eta type (Homo sapiens) (UniProt P24723); assay: PKC-eta ProQinase selectivity panel; settings: Compound concentration 1.0 uM
[12] = test system: Epidermal growth factor receptor (Homo sapiens), P00533 [L858R,T790M]; assay: EGF-R T790M/L858R ProQinase selectivity panel; settings: Compound concentration 1.0 uM
[13] = biological target: Calcium/calmodulin-dependent protein kinase kinase 2 (Homo sapiens) (UniProt Q96RR4); assay: CAMKK2 ProQinase selectivity panel; settings: Compound concentration 1.0 uM
[14] = test system: Dual specificity mitogen-activated protein kinase kinase 6 (Homo sapiens), P52564 [S207D,T211D]; assay: MKK6 S207D/T211D ProQinase selectivity panel; settings: Compound concentration 1.0 uM
[15] = biological target: Serine/threonine-protein kinase TAO2 (Homo sapiens) (UniProt Q9UL54); assay: TAOK2 ProQinase selectivity panel; settings: Compound concentration 1.0 uM
[16] = biological target: Beta-1 adrenergic receptor (Homo sapiens) (UniProt P08588); settings: Compound concentration 10.0 uM
[17] = biological target: Calcium/calmodulin-dependent protein kinase type IV (Homo sapiens) (UniProt Q16566); assay: CAMK4 ProQinase selectivity panel; settings: Compound concentration 1.0 uM
[18] = biological target: Tyrosine-protein kinase ABL1 (Homo sapiens) (UniProt P00519); assay: ABL1 wt ProQinase selectivity panel; settings: Compound concentration 1.0 uM
[19] = biological target: Muscarinic acetylcholine receptor M3 (Homo sapiens) (UniProt P20309); settings: Compound concentration 10.0 uM
[20] = biological target: Aurora kinase C (Homo sapiens) (UniProt Q9UQB9); assay: Aurora-C ProQinase selectivity panel; settings: Compound concentration 1.0 uM
[21] = biological target: Tyrosine-protein kinase Tec (Homo sapiens) (UniProt P42680); assay: TEC ProQinase selectivity panel; settings: Compound concentration 1.0 uM
[22] = biological target: Tyrosine-protein kinase receptor TYRO3 (Homo sapiens) (UniProt Q06418); assay: TYRO3 ProQinase selectivity panel; settings: Compound concentration 1.0 uM
[23] = biological target: Homeodomain-interacting protein kinase 2 (Homo sapiens) (UniProt Q9H2X6); assay: HIPK2 ProQinase selectivity panel; settings: Compound concentration 1.0 uM
[24] = biological target: Aurora kinase B (Homo sapiens) (UniProt Q96GD4); assay: Aurora-B ProQinase selectivity panel; settings: Compound concentration 1.0 uM
[25] = biological target: Serine/threonine-protein kinase PLK3 (Homo sapiens) (UniProt Q9H4B4); assay: PLK3 ProQinase selectivity panel; settings: Compound concentration 1.0 uM
[26] = biological target: Muscarinic acetylcholine receptor M4 (Homo sapiens) (UniProt P08173); settings: Compound concentration 10.0 uM
[27] = biological target: Tyrosine-protein kinase JAK2 (Homo sapiens) (UniProt O60674); assay: JAK2 ProQinase selectivity panel; settings: Compound concentration 1.0 uM
[28] = biological target: Inhibitor of nuclear factor kappa-B kinase subunit epsilon (Homo sapiens) (UniProt Q14164); assay: IKK-epsilon ProQinase selectivity panel; settings: Compound concentration 1.0 uM
[29] = biological target: Non-receptor tyrosine-protein kinase TYK2 (Homo sapiens) (UniProt P29597); assay: TYK2 ProQinase selectivity panel; settings: Compound concentration 1.0 uM
[30] = biological target: Fibroblast growth factor receptor 3 (Homo sapiens) (UniProt P22607); assay: FGF-R3 wt ProQinase selectivity panel; settings: Compound concentration 1.0 uM
[31] = biological target: Maternal embryonic leucine zipper kinase (Homo sapiens) (UniProt Q14680); assay: MELK ProQinase selectivity panel; settings: Compound concentration 1.0 uM
[32] = biological target: Protein-tyrosine kinase 6 (Homo sapiens) (UniProt Q13882); assay: BRK ProQinase selectivity panel; settings: Compound concentration 1.0 uM
[33] = biological target: Mitogen-activated protein kinase kinase kinase 7 (Homo sapiens) (UniProt O43318); assay: MAP3K7/MAP3K7IP1 ProQinase selectivity panel; settings: Compound concentration 1.0 uM
[34] = biological target: Serine/threonine-protein kinase BRSK1 (Homo sapiens) (UniProt Q8TDC3); assay: BRSK1 ProQinase selectivity panel; settings: Compound concentration 1.0 uM
[35] = biological target: Inhibitor of nuclear factor kappa-B kinase subunit beta (Homo sapiens) (UniProt O14920); assay: IKK-beta ProQinase selectivity panel; settings: Compound concentration 1.0 uM
[36] = biological target: Dual specificity mitogen-activated protein kinase kinase 1 (Homo sapiens) (UniProt Q02750); assay: MEK1 ProQinase selectivity panel; settings: Compound concentration 1.0 uM
[37] = test system: Hepatocyte growth factor receptor (Homo sapiens), P08581 [Y1230A]; assay: MET Y1230A ProQinase selectivity panel; settings: Compound concentration 1.0 uM
[38] = biological target: Beta-adrenergic receptor kinase 1 (Homo sapiens) (UniProt P25098); assay: GRK2 ProQinase selectivity panel; settings: Compound concentration 1.0 uM
[39] = test system: Tyrosine-protein kinase ABL1 (Homo sapiens), P00519 [T315I]; assay: ABL1 T315I ProQinase selectivity panel; settings: Compound concentration 1.0 uM
[40] = test system: Epidermal growth factor receptor (Homo sapiens), P00533 [L861Q]; assay: EGF-R L861Q ProQinase selectivity panel; settings: Compound concentration 1.0 uM
[41] = biological target: Testis-specific serine/threonine-protein kinase 2 (Homo sapiens) (UniProt Q96PF2); assay: TSK2 ProQinase selectivity panel; settings: Compound concentration 1.0 uM
[42] = biological target: CDK7/Cyclin H/MNAT1 (Homo sapiens) (UniProt P51946+P50613+P51948); assay: CDK7/CycH/MAT1 ProQinase selectivity panel; type: protein-complex assay; settings: Compound concentration 1.0 uM
[43] = biological target: Tyrosine-protein kinase CSK (Homo sapiens) (UniProt P41240); assay: CSK ProQinase selectivity panel; settings: Compound concentration 1.0 uM
[44] = biological target: Cyclin-dependent kinase 16 (Homo sapiens) (UniProt Q00536); assay: PCTAIRE1 ProQinase selectivity panel; settings: Compound concentration 1.0 uM
[45] = biological target: Dual specificity tyrosine-phosphorylation-regulated kinase 4 (Homo sapiens) (UniProt Q9NR20); assay: DYRK4 ProQinase selectivity panel; settings: Compound concentration 1.0 uM
[46] = biological target: Tyrosine-protein kinase Srms (Homo sapiens) (UniProt Q9H3Y6); assay: SRMS ProQinase selectivity panel; settings: Compound concentration 1.0 uM
[47] = biological target: RAC-alpha serine/threonine-protein kinase (Homo sapiens) (UniProt P31749); assay: AKT1 ProQinase selectivity panel; settings: Compound concentration 1.0 uM

Fibroblast growth factor receptor 3 (Homo sapiens), sequence (P22607 23-806 limits assumed): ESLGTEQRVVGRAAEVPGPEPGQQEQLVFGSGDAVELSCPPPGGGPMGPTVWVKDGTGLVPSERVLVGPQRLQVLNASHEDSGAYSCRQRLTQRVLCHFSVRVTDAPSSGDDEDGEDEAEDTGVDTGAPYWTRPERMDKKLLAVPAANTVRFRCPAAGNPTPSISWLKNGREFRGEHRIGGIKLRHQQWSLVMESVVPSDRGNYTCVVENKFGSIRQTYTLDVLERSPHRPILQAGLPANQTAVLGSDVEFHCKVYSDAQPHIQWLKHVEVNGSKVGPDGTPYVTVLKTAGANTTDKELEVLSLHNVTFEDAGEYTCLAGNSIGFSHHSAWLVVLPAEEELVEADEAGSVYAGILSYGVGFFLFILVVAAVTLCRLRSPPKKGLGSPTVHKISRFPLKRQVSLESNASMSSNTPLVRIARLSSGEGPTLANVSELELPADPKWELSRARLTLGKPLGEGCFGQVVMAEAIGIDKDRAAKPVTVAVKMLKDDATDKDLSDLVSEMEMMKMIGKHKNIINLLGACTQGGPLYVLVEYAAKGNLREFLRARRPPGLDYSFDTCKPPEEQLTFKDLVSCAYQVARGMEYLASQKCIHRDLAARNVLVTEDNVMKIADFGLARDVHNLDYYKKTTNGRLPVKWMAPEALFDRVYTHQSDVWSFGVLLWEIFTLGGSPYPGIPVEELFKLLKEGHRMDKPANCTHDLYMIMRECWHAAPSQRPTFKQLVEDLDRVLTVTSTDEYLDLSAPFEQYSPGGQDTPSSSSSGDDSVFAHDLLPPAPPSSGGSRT
Tyrosine-protein kinase Tec (Homo sapiens), sequence (P42680 whole entry): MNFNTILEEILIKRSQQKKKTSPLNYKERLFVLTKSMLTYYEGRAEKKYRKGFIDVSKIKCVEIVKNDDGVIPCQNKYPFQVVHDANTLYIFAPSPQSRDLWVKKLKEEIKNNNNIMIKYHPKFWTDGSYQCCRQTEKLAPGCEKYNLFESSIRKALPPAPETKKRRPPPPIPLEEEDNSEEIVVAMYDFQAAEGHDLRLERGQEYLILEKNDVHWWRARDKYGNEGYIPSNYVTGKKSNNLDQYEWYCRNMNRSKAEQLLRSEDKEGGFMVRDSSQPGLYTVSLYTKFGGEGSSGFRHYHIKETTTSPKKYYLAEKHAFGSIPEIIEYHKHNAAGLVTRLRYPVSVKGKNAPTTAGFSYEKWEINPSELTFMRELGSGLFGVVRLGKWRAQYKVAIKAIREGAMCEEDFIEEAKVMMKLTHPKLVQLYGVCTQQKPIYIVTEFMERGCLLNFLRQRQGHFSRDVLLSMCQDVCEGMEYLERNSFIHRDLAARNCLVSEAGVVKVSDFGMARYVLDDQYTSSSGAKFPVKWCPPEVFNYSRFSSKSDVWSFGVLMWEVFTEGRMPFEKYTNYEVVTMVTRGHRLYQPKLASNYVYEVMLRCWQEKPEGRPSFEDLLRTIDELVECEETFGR
Inhibitor of nuclear factor kappa-B kinase subunit epsilon (Homo sapiens), sequence (Q14164 whole entry): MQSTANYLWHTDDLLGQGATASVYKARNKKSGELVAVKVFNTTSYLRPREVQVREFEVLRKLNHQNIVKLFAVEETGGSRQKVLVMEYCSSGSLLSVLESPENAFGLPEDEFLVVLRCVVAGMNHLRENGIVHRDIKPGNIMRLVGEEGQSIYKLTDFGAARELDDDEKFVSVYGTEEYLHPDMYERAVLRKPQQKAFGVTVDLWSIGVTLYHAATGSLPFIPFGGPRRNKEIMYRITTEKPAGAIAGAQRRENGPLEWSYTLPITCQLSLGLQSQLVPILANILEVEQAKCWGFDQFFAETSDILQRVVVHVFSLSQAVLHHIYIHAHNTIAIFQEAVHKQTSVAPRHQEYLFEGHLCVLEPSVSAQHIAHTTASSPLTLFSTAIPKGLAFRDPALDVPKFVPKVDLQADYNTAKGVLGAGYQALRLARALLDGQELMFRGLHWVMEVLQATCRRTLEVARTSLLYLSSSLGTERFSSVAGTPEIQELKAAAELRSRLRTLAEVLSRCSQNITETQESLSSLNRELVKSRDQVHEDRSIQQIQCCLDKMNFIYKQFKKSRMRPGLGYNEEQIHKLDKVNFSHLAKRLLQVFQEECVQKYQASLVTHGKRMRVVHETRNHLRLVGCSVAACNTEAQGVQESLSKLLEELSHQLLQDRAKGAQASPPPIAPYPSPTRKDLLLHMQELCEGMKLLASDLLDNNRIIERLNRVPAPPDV
Mitogen-activated protein kinase kinase kinase 8 (Homo sapiens), sequence (P41279 whole entry): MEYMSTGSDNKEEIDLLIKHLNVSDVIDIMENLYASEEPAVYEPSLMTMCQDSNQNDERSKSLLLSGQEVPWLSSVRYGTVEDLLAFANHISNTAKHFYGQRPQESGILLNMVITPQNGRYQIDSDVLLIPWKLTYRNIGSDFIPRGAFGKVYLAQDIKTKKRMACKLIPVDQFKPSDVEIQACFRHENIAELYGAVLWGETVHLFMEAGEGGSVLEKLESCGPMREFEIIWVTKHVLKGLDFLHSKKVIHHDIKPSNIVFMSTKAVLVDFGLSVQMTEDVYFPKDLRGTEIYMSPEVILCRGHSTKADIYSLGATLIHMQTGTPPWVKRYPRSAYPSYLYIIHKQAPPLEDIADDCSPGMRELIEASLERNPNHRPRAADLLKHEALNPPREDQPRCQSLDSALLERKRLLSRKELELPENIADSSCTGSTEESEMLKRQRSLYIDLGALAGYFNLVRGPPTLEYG
Tyrosine-protein kinase JAK2 (Homo sapiens), sequence (O60674 whole entry): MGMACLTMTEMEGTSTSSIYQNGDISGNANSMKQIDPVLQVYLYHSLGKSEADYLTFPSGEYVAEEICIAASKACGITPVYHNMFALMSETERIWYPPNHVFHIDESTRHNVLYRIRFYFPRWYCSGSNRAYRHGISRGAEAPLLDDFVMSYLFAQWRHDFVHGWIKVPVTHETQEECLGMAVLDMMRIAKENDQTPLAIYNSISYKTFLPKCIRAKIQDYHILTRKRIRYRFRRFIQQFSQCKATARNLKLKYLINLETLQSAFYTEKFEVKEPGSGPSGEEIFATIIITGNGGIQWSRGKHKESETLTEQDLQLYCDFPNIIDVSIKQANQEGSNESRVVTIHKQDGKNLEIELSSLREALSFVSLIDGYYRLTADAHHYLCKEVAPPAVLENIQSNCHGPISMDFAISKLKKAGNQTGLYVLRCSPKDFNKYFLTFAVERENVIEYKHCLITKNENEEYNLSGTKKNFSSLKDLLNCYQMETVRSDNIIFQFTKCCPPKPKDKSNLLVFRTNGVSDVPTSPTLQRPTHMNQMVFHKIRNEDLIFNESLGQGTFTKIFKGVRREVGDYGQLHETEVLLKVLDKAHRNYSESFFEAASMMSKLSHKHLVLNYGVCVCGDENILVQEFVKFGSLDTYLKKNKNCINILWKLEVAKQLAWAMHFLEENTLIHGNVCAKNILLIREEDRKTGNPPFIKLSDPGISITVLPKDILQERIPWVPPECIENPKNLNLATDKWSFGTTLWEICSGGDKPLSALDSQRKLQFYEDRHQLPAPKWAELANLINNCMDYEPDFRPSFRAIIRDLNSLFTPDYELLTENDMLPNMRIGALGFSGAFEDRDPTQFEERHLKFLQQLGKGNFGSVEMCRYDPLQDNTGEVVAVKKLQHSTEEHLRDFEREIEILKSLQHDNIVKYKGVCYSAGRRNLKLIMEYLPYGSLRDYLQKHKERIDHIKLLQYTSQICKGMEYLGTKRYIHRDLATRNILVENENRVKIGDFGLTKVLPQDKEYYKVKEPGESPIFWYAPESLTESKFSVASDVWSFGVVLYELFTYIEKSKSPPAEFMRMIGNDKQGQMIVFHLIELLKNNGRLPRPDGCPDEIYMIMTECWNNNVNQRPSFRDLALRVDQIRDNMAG
Beta-adrenergic receptor kinase 1 (Homo sapiens), sequence (P25098 whole entry): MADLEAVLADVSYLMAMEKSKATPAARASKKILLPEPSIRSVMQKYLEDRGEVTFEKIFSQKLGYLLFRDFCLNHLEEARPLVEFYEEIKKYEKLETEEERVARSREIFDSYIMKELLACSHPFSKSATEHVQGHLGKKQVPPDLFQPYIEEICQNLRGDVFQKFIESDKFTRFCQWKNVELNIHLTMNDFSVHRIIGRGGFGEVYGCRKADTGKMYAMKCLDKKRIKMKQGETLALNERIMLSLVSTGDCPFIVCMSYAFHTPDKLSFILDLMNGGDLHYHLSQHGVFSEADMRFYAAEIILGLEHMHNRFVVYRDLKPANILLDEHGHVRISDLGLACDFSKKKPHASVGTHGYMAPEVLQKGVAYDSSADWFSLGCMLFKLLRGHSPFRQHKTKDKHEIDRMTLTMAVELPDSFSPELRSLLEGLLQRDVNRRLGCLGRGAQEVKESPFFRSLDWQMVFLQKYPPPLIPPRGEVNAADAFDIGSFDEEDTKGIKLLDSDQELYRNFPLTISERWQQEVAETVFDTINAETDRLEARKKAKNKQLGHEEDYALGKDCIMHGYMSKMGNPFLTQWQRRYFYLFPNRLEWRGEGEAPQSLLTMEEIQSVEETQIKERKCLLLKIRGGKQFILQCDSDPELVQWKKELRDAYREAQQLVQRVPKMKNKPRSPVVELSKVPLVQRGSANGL
Tyrosine-protein kinase Srms (Homo sapiens), sequence (Q9H3Y6 whole entry): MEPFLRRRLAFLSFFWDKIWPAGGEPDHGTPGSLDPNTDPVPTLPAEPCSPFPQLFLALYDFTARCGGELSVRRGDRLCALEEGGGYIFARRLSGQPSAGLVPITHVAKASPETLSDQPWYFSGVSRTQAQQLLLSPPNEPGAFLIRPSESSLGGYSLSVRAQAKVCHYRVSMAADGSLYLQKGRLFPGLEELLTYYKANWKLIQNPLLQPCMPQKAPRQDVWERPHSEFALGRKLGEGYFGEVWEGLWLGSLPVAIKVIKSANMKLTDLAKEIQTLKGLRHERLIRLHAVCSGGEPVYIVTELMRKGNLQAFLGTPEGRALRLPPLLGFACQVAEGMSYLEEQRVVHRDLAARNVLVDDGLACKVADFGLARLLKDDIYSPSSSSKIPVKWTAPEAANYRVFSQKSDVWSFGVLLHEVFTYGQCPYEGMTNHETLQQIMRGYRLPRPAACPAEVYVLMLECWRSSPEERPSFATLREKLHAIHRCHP

Q: With `O=C1c2ccc(Nc3ccc(F)cc3F)cc2CCc2ccc(OC[C@H](O)CO)cc21` [Skepinone-L] as the compound, how does the IC50 [1] read?
A: 40.2 nM (active)

Q: What about the % Residual activity with Skepinone-L [2] of the same compound?
A: 91%

Q: What about the % Residual activity with Skepinone-L [3] of the same compound?
A: 113%

Q: What about the % Residual activity with Skepinone-L [4] of the same compound?
A: 125%

Q: And the inhibition [5]?
A: 12.8%

Q: What about the % Residual activity with Skepinone-L [6] of the same compound?
A: 120%

Q: What about the % Residual activity with Skepinone-L [7] of the same compound?
A: 77%

Q: What about the % Residual activity with Skepinone-L [8] of the same compound?
A: 82%

Q: And the % Residual activity with Skepinone-L [9]?
A: 97%

Q: What about the % Residual activity with Skepinone-L [10] of the same compound?
A: 88%

Q: What about the % Residual activity with Skepinone-L [11] of the same compound?
A: 97%

Q: And the % Residual activity with Skepinone-L [12]?
A: 93%

Q: And the % Residual activity with Skepinone-L [13]?
A: 97%

Q: What about the % Residual activity with Skepinone-L [14] of the same compound?
A: 120%

Q: What about the % Residual activity with Skepinone-L [15] of the same compound?
A: 102%

Q: And the inhibition [16]?
A: 30.4%

Q: And the % Residual activity with Skepinone-L [17]?
A: 111%

Q: And the % Residual activity with Skepinone-L [18]?
A: 95%

Q: What about the inhibition [19] of the same compound?
A: 11.2%

Q: What about the % Residual activity with Skepinone-L [20] of the same compound?
A: 85%

Q: And the % Residual activity with Skepinone-L [21]?
A: 115%

Q: And the % Residual activity with Skepinone-L [22]?
A: 108%

Q: And the % Residual activity with Skepinone-L [23]?
A: 104%

Q: What about the % Residual activity with Skepinone-L [24] of the same compound?
A: 96%

Q: What about the % Residual activity with Skepinone-L [25] of the same compound?
A: 99%

Q: And the inhibition [26]?
A: -3.22%

Q: And the % Residual activity with Skepinone-L [27]?
A: 90%

Q: What about the % Residual activity with Skepinone-L [28] of the same compound?
A: 103%

Q: What about the % Residual activity with Skepinone-L [29] of the same compound?
A: 96%

Q: What about the % Residual activity with Skepinone-L [30] of the same compound?
A: 102%

Q: And the % Residual activity with Skepinone-L [31]?
A: 81%

Q: And the % Residual activity with Skepinone-L [32]?
A: 84%

Q: And the % Residual activity with Skepinone-L [33]?
A: 80%

Q: And the % Residual activity with Skepinone-L [34]?
A: 94%

Q: What about the % Residual activity with Skepinone-L [35] of the same compound?
A: 81%

Q: And the % Residual activity with Skepinone-L [36]?
A: 79%

Q: What about the % Residual activity with Skepinone-L [37] of the same compound?
A: 91%

Q: And the % Residual activity with Skepinone-L [38]?
A: 83%

Q: What about the % Residual activity with Skepinone-L [39] of the same compound?
A: 93%

Q: And the % Residual activity with Skepinone-L [40]?
A: 94%

Q: And the % Residual activity with Skepinone-L [41]?
A: 82%

Q: And the % Residual activity with Skepinone-L [42]?
A: 107%

Q: And the % Residual activity with Skepinone-L [43]?
A: 111%

Q: What about the % Residual activity with Skepinone-L [44] of the same compound?
A: 79%

Q: And the % Residual activity with Skepinone-L [45]?
A: 93%

Q: What about the % Residual activity with Skepinone-L [46] of the same compound?
A: 95%

Q: What about the % Residual activity with Skepinone-L [47] of the same compound?
A: 102%
